Source: patent US12433870B2, “Supramolecular photoprotection of a photosensitizer” (Northwestern University, priority 2019, dated 2025)

Tests used:
[1] = reference photosensitizer; cited from earlier work
A2780 cells [2] = experiment: In vitro PDT efficacy, MTT assay after visible light irradiation; type: cell-based, human; settings: 10 μM PBS solution, light dose 0.078 J cm^−2
Experimental: A2780 cells (human ovarian cancer cell line) and MCF-7 cells (human breast adenocarcinoma cell line) obtained from Sigma-Aldrich and American Type Culture Collection (ATCC, Rockville, MD, USA), respectively were utilized for cell culture experiments. These cells were cultured in Dulbecco's Modified Eagle's Medium (DMEM) supplemented with 10% fetal bovine serum (FBS), penicillin (100 IU/mL) and streptomycin (100 μg/mL) at 37° C. in the presence of air (95%) and CO2 (5%).
A2780 or MCF-7 cells (2×10^5 cells/mL, 100 μL) were seeded in each well of a black 96-well plate. Stock solution of ExBox^4+⊃DPP in PBS (1 mM, 10 μL) was added to each well to achieve working concentrations and incubated for 12 h. After incubation, wells were washed with PBS, added with 100 μL of DMEM and immediately irradiated with visible light using Max-303 Xenon Light Source (385-740 nm, Asahi Spectra) at different light intensities (5-50 mW) for 1 to 15 min. Following irradiation, cells were incubated overnight and then added with MTT (5 mg/mL in PBS, 10 μL). After 4 h incubation with MTT, media from each well was pipetted out, formazan crystals deposited on the plate were dissolved in 200 μL of Me2SO, and the absorbance of each well was measured using a microplate reader at 560 nm. All the samples were analyzed in quadruplicates.
The percentage cell viability was calculated using the following formula: % cell viability=(OD of treated sample/OD of untreated sample)*100.

A2780 cells [3] = experiment: Live cell confocal microscopy, cellular uptake and co-localization; type: cell-based, human; settings: lysosomal uptake, control experiment
Experimental: A2780 cells (1×10^5 cells/mL, 300 μL) were plated in each well of an 8-well μ-slide (ibidi cell focus) and cultured overnight. PBS solution of ExBox^4+⊃DPP was added to each well and incubated for predetermined time points. For cellular co-localization studies, cells were washed with phenol free DMEM and stained with LysoTracker green (lysosome stain, 1:1000 dilution) or MitoSpy™ Green FM (mitochondria stain, 1:2000 dilution) or NucBlue™ Live ReadyProbes™ Reagent (nuclei stain, 1 drop). For the live-dead assay, cells were incubated with PBS solution of ExBox^4+⊃DPP irradiated for 10 min at […] light intensity, incubated overnight, and stained with Calcein AM (2 μM) and Ethidium homodimer-1 (4 μM). Plated cells were imaged within a humidified chamber using a 63× oil-immersion objective on a SP5 Leica Confocal Microscope using HyD detectors and lasers.

[4] = Detection of singlet oxygen (ADPA chemical method, methylene blue reference); type: physicochemical; settings: 20 μM, 630 nm, 50 mW, 20 min
Experimental: Singlet oxygen (^1O2) quantum-yield measurements were conducted by a chemical method. The disodium salt of 9.10-anthracenedipropionic acid (ADPA) was used as singlet oxygen detection reagent with methylene blue used as a reference (Φt=0.53). In this experiment, ADPA (0.1 μmol) was added to the H2O solution of ExBox^4+⊃DPP (20 μM) with a laser irradiation (630 nm, 50 mW) for 20 min, followed by quantification of ^1O2 by the absorbance intensity change (UV-3600 Shimadzu spectrophotometer) at 380 nm of ADPA. The calculation of ^1O2 quantum yield is based on the equality ΦΔ=(ΔAs/[…])Φr. ΔAs is the absorption change of detected photosensitizer, ΔAr is the absorption change of referenced photosensitizer and Φ^r is the quantum yield of singlet oxygen of referenced photosensitizer (methylene blue).
(§1) ADPA (0.1 μmol) was added to the H2O solution of DPPH2^+ (20 μM) with a laser irradiation (630 nm, 50 mW) for 20 min, followed by quantification of the ^1O2 by the absorbance intensity change (UV-3600 Shimadzu spectrophotometer) at 380 nm of ADPA. The calculation of the ^1O2 quantum yield is based on the equality ΦΔ=(ΔAs/ΔAr)Φr where ΔAs is the absorption change of detected photosensitizer, ΔAr is the absorption change of referenced photosensitizer and Φr is the quantum yield of singlet oxygen of referenced photosensitizer (methylene blue). Measured ^1O2 quantum yield of DPPH2^2+ is 0.38 in H2O.
as §1, with “acetone” for “H2O”, “DPP” for “DPPH2^+”, “DPP” for “DPPH2^2+”, “0.43” for “0.38”, “acetone.” for “H2O.”

[5] = Solubility in water / PBS buffer; type: physicochemical

For `CN(C)c1ccc2nc3ccc(=[N+](C)C)cc-3sc2c1` [methylene blue], the “^1O2 quantum yield of reference” value [1] is listed as 0.53.
In the case of `C1=Cc2nc1cc1ccc([nH]1)c(-c1ccccc1)c1nc(cc3ccc([nH]3)c2-c2ccccc2)C=C1` [DPPH2^2+, reference compound], the “cells killed (PDT control experiment)” value (A2780 cells [2]) is reported as roughly 90%, the “cellular uptake compared with the complex (fluorescence intensity inside cells)” value (A2780 cells [3]) is reported as “less efficient” and the “^1O2 quantum yield” value ([4]; in H2O) is reported as 0.38.
With `C1=Cc2nc1cc1ccc([nH]1)c(-c1ccccc1)c1nc(cc3ccc([nH]3)c2-c2ccccc2)C=C1` [DPP, 5,15-diphenylporphyrin] the “^1O2 quantum yield” value ([4]; in acetone) was 0.43, the “solubility in H2O” value ([5]; H2O) was “insoluble” and the “solubility in water and PBS buffer” value ([5]; water and PBS buffer) was “insoluble”.
